Strand notation (5' to 3'): a small letter for the sugar, then the base; units joined by * are phosphorothioate-linked, units joined directly phosphodiester-linked; [ ] holds rarer units or linkages, { } end groups; capitals alone tell only the bases. e = 2'-O-(2-methoxyethyl) (MOE); [5mC] = 5-methylcytosine; d = 2'-deoxy (DNA)
test system: human Factor 7 mRNA; test: Dose-dependent antisense inhibition of human Factor 7 in HepB3 cells, lipofectin; assay type: cell-based; details: 3.125 nM, HepB3 cells, approx. 16 hours (Table 14)
Summary of the method: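 HepB3 cells (4,000/well) lipofectin-transfected with antisense oligonucleotide at 3.125 or 6.25 up to 100 nM for ~16 h. Factor 7 mRNA measured by real-time RT-PCR with primer probe set RTS 2927, adjusted to RIBOGREEN total RNA; expressed as percent inhibition versus untreated control cells.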

| Substance | percent inhibition of Factor 7 mRNA, relative to untreated control cells [%] |
| --- | --- |
| 422096 (antisense eA*eG*eA*e[5mC]*eA*dA*dT*dG*dG*dT*d[5mC]*dA*dG*dG*dG*e[5mC]*eT*eG*eG*eT) [compound 422096] | 17 |
| 422130 (antisense eG*e[5mC]*e[5mC]*eT*eG*dA*dG*dG*d[5mC]*d[5mC]*dA*dG*d[5mC]*dA*dG*eA*eT*e[5mC]*eA*e[5mC]) [compound 422130] | 4 |

same assay, conditions: 12.5 nM, HepB3 cells, approx. 16 hours (Table 14)

| Substance | percent inhibition of Factor 7 mRNA, relative to untreated control cells [%] |
| --- | --- |
| 422096 (antisense eA*eG*eA*e[5mC]*eA*dA*dT*dG*dG*dT*d[5mC]*dA*dG*dG*dG*e[5mC]*eT*eG*eG*eT) [compound 422096] | 43 |
| 422130 (antisense eG*e[5mC]*e[5mC]*eT*eG*dA*dG*dG*d[5mC]*d[5mC]*dA*dG*d[5mC]*dA*dG*eA*eT*e[5mC]*eA*e[5mC]) [compound 422130] | 34 |

same assay, conditions: 25 nM, HepB3 cells, approx. 16 hours (Table 14)

| Substance | percent inhibition of Factor 7 mRNA, relative to untreated control cells [%] |
| --- | --- |
| 422096 (antisense eA*eG*eA*e[5mC]*eA*dA*dT*dG*dG*dT*d[5mC]*dA*dG*dG*dG*e[5mC]*eT*eG*eG*eT) [compound 422096] | 60 |
| 422130 (antisense eG*e[5mC]*e[5mC]*eT*eG*dA*dG*dG*d[5mC]*d[5mC]*dA*dG*d[5mC]*dA*dG*eA*eT*e[5mC]*eA*e[5mC]) [compound 422130] | 59 |

same assay, conditions: 50 nM, HepB3 cells, approx. 16 hours (Table 14)

| Substance | percent inhibition of Factor 7 mRNA, relative to untreated control cells [%] |
| --- | --- |
| 422096 (antisense eA*eG*eA*e[5mC]*eA*dA*dT*dG*dG*dT*d[5mC]*dA*dG*dG*dG*e[5mC]*eT*eG*eG*eT) [compound 422096] | 68 |
| 422130 (antisense eG*e[5mC]*e[5mC]*eT*eG*dA*dG*dG*d[5mC]*d[5mC]*dA*dG*d[5mC]*dA*dG*eA*eT*e[5mC]*eA*e[5mC]) [compound 422130] | 77 |

same assay, conditions: 100 nM, HepB3 cells, approx. 16 hours (Table 14)

| Substance | percent inhibition of Factor 7 mRNA, relative to untreated control cells [%] |
| --- | --- |
| 422096 (antisense eA*eG*eA*e[5mC]*eA*dA*dT*dG*dG*dT*d[5mC]*dA*dG*dG*dG*e[5mC]*eT*eG*eG*eT) [compound 422096] | 82 |
| 422130 (antisense eG*e[5mC]*e[5mC]*eT*eG*dA*dG*dG*d[5mC]*d[5mC]*dA*dG*d[5mC]*dA*dG*eA*eT*e[5mC]*eA*e[5mC]) [compound 422130] | 85 |

same assay, conditions: HepB3 cells, approx. 16 hours (Table 14)

| Substance | percent inhibition of Factor 7 mRNA, relative to untreated control cells [%] |
| --- | --- |
| 422096 (antisense eA*eG*eA*e[5mC]*eA*dA*dT*dG*dG*dT*d[5mC]*dA*dG*dG*dG*e[5mC]*eT*eG*eG*eT) [compound 422096] | 23 |
| 422130 (antisense eG*e[5mC]*e[5mC]*eT*eG*dA*dG*dG*d[5mC]*d[5mC]*dA*dG*d[5mC]*dA*dG*eA*eT*e[5mC]*eA*e[5mC]) [compound 422130] | 15 |

test system: human Factor 7 mRNA; test: Antisense inhibition of human Factor 7 mRNA in HepB3 cells, 50 nM antisense oligonucleotide, lipofectin; assay type: cell-based; details: oligonucleotides targeted to nucleobases 11830 to 11869 of SEQ ID NO: 1 (Table 9)
Summary of the method: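 Readout is percent reduction of Factor 7 message compared with untreated cells, after correction for total RNA content quantified by RIBOGREEN®. Cultures were seeded at 4,000 cells per well and treated for about 24 hours before RNA extraction.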

| Substance | % Inhibition (human Factor 7 mRNA levels) [%] |
| --- | --- |
| 422096 (antisense eA*eG*eA*e[5mC]*eA*dA*dT*dG*dG*dT*d[5mC]*dA*dG*dG*dG*e[5mC]*eT*eG*eG*eT) [compound 422096] | 76 |

same assay, conditions: oligonucleotides targeted to nucleobases 14707 to 14732 of SEQ ID NO: 1 (Table 11)

| Substance | % Inhibition (human Factor 7 mRNA levels) [%] |
| --- | --- |
| 422130 (antisense eG*e[5mC]*e[5mC]*eT*eG*dA*dG*dG*d[5mC]*d[5mC]*dA*dG*d[5mC]*dA*dG*eA*eT*e[5mC]*eA*e[5mC]) [compound 422130] | 79 |

test system: human Factor 7 mRNA; test: Dose-dependent antisense inhibition of human Factor 7 in HepB3 cells, electroporation; assay type: cell-based; details: 3.125 μM, approx. 16 hours (Table 15, Example 7)
Procedure: (§1) The gapmers were also transfected via electroporation and their dose-dependent inhibition of human Factor 7 mRNA was measured. Cells were plated at a density of 20,000 cells per well and transfected via electroporation with 3.125 μM, 6.25 μM, 12.5 μM, 25 μM, 50 μM, and 100 μM concentrations of antisense oligonucleotide, as specified in Table 15. After a treatment period of approximately 16 hours, RNA was isolated from the cells and Factor 7 mRNA levels were measured by quantitative real-time PCR. Human Factor 7 primer probe set RTS 2927 was used to measure mRNA levels. Factor 7 mRNA levels were adjusted according to total RNA content, as measured by RIBOGREEN®. Results are presented as percent inhibition of Factor 7, relative to untreated control cells.
as §1, with “Cells were” for “The gapmers were also transfected via electroporation and their dose-dependent inhibition of human Factor 7 mRNA was measured. Cells were”, “in […]. After a” for “in Table 15. After a”, “cells and human Factor 7” for “cells and Factor 7”

| Substance | percent inhibition of Factor 7 mRNA, relative to untreated control cells [%] |
| --- | --- |
| 422096 (antisense eA*eG*eA*e[5mC]*eA*dA*dT*dG*dG*dT*d[5mC]*dA*dG*dG*dG*e[5mC]*eT*eG*eG*eT) [compound 422096] | 26 |
| 422130 (antisense eG*e[5mC]*e[5mC]*eT*eG*dA*dG*dG*d[5mC]*d[5mC]*dA*dG*d[5mC]*dA*dG*eA*eT*e[5mC]*eA*e[5mC]) [compound 422130] | 28 |

same assay, conditions: 3.125 μM, approx. 16 hours (Table 16, Example 8 confirmation)

| Substance | percent inhibition of Factor 7 mRNA, relative to untreated control cells [%] |
| --- | --- |
| 422130 (antisense eG*e[5mC]*e[5mC]*eT*eG*dA*dG*dG*d[5mC]*d[5mC]*dA*dG*d[5mC]*dA*dG*eA*eT*e[5mC]*eA*e[5mC]) [compound 422130] | 14 |

same assay, conditions: 6.25 μM, approx. 16 hours (Table 15, Example 7)

| Substance | percent inhibition of Factor 7 mRNA, relative to untreated control cells [%] |
| --- | --- |
| 422096 (antisense eA*eG*eA*e[5mC]*eA*dA*dT*dG*dG*dT*d[5mC]*dA*dG*dG*dG*e[5mC]*eT*eG*eG*eT) [compound 422096] | 30 |
| 422130 (antisense eG*e[5mC]*e[5mC]*eT*eG*dA*dG*dG*d[5mC]*d[5mC]*dA*dG*d[5mC]*dA*dG*eA*eT*e[5mC]*eA*e[5mC]) [compound 422130] | 29 |

same assay, conditions: 6.25 μM, approx. 16 hours (Table 16, Example 8 confirmation)

| Substance | percent inhibition of Factor 7 mRNA, relative to untreated control cells [%] |
| --- | --- |
| 422130 (antisense eG*e[5mC]*e[5mC]*eT*eG*dA*dG*dG*d[5mC]*d[5mC]*dA*dG*d[5mC]*dA*dG*eA*eT*e[5mC]*eA*e[5mC]) [compound 422130] | 24 |

same assay, conditions: 12.5 μM, approx. 16 hours (Table 15, Example 7)

| Substance | percent inhibition of Factor 7 mRNA, relative to untreated control cells [%] |
| --- | --- |
| 422096 (antisense eA*eG*eA*e[5mC]*eA*dA*dT*dG*dG*dT*d[5mC]*dA*dG*dG*dG*e[5mC]*eT*eG*eG*eT) [compound 422096] | 46 |
| 422130 (antisense eG*e[5mC]*e[5mC]*eT*eG*dA*dG*dG*d[5mC]*d[5mC]*dA*dG*d[5mC]*dA*dG*eA*eT*e[5mC]*eA*e[5mC]) [compound 422130] | 59 |

same assay, conditions: 12.5 μM, approx. 16 hours (Table 16, Example 8 confirmation)

| Substance | percent inhibition of Factor 7 mRNA, relative to untreated control cells [%] |
| --- | --- |
| 422130 (antisense eG*e[5mC]*e[5mC]*eT*eG*dA*dG*dG*d[5mC]*d[5mC]*dA*dG*d[5mC]*dA*dG*eA*eT*e[5mC]*eA*e[5mC]) [compound 422130] | 61 |

same assay, conditions: 25 μM, approx. 16 hours (Table 15, Example 7)

| Substance | percent inhibition of Factor 7 mRNA, relative to untreated control cells [%] |
| --- | --- |
| 422096 (antisense eA*eG*eA*e[5mC]*eA*dA*dT*dG*dG*dT*d[5mC]*dA*dG*dG*dG*e[5mC]*eT*eG*eG*eT) [compound 422096] | 50 |
| 422130 (antisense eG*e[5mC]*e[5mC]*eT*eG*dA*dG*dG*d[5mC]*d[5mC]*dA*dG*d[5mC]*dA*dG*eA*eT*e[5mC]*eA*e[5mC]) [compound 422130] | 61 |

same assay, conditions: 25 μM, approx. 16 hours (Table 16, Example 8 confirmation)

| Substance | percent inhibition of Factor 7 mRNA, relative to untreated control cells [%] |
| --- | --- |
| 422130 (antisense eG*e[5mC]*e[5mC]*eT*eG*dA*dG*dG*d[5mC]*d[5mC]*dA*dG*d[5mC]*dA*dG*eA*eT*e[5mC]*eA*e[5mC]) [compound 422130] | 68 |

same assay, conditions: 50 μM, approx. 16 hours (Table 15, Example 7)

| Substance | percent inhibition of Factor 7 mRNA, relative to untreated control cells [%] |
| --- | --- |
| 422096 (antisense eA*eG*eA*e[5mC]*eA*dA*dT*dG*dG*dT*d[5mC]*dA*dG*dG*dG*e[5mC]*eT*eG*eG*eT) [compound 422096] | 62 |
| 422130 (antisense eG*e[5mC]*e[5mC]*eT*eG*dA*dG*dG*d[5mC]*d[5mC]*dA*dG*d[5mC]*dA*dG*eA*eT*e[5mC]*eA*e[5mC]) [compound 422130] | 73 |

same assay, conditions: 50 μM, approx. 16 hours (Table 16, Example 8 confirmation)

| Substance | percent inhibition of Factor 7 mRNA, relative to untreated control cells [%] |
| --- | --- |
| 422130 (antisense eG*e[5mC]*e[5mC]*eT*eG*dA*dG*dG*d[5mC]*d[5mC]*dA*dG*d[5mC]*dA*dG*eA*eT*e[5mC]*eA*e[5mC]) [compound 422130] | 82 |

same assay, conditions: 100 μM, approx. 16 hours (Table 15, Example 7)

| Substance | percent inhibition of Factor 7 mRNA, relative to untreated control cells [%] |
| --- | --- |
| 422096 (antisense eA*eG*eA*e[5mC]*eA*dA*dT*dG*dG*dT*d[5mC]*dA*dG*dG*dG*e[5mC]*eT*eG*eG*eT) [compound 422096] | 85 |
| 422130 (antisense eG*e[5mC]*e[5mC]*eT*eG*dA*dG*dG*d[5mC]*d[5mC]*dA*dG*d[5mC]*dA*dG*eA*eT*e[5mC]*eA*e[5mC]) [compound 422130] | 86 |

same assay, conditions: 100 μM, approx. 16 hours (Table 16, Example 8 confirmation)

| Substance | percent inhibition of Factor 7 mRNA, relative to untreated control cells [%] |
| --- | --- |
| 422130 (antisense eG*e[5mC]*e[5mC]*eT*eG*dA*dG*dG*d[5mC]*d[5mC]*dA*dG*d[5mC]*dA*dG*eA*eT*e[5mC]*eA*e[5mC]) [compound 422130] | 88 |
